From paper PMC11062922 (Nature Chemical Biology, 2023) come the findings set out here.

One experiment has as its target T1, PAK4 (Homo sapiens, UniProt O96013).
T1 construct: a mixture of lysates from five cancer cell lines; endogenous in cells
The experiment can be described thus: Kinobeads competition binding: PAK4. Particulars: target PAK4. An excerpt:
Supplement 41589_2023_1459_MOESM4_ESM.xlsx, sheet "CATDS matrix" | column: PAK4

A further experiment relates to LCK. The experiment can be described thus: Kinobeads competition binding: LCK. Set-up: species or system human. Conditions: target LCK.
For a further experiment, the system named is CDK16. The experiment can be described thus: Kinobeads competition binding: CDK16. Particulars: target CDK16. Details: species or system human.
The next experiment relates to AGK. Nature of the experiment: Kinobeads competition binding: AGK. Set-up: species or system human. Particulars: target AGK.
The next experiment has as its system GALK1. Nature of the experiment: Kinobeads competition binding: GALK1. Set-up: species or system human. Conditions: target GALK1.
The next experiment addresses T2, IKBKE (Homo sapiens, UniProt Q14164).
T2 construct: endogenous in cells
T2 sequence (Q14164 1-716): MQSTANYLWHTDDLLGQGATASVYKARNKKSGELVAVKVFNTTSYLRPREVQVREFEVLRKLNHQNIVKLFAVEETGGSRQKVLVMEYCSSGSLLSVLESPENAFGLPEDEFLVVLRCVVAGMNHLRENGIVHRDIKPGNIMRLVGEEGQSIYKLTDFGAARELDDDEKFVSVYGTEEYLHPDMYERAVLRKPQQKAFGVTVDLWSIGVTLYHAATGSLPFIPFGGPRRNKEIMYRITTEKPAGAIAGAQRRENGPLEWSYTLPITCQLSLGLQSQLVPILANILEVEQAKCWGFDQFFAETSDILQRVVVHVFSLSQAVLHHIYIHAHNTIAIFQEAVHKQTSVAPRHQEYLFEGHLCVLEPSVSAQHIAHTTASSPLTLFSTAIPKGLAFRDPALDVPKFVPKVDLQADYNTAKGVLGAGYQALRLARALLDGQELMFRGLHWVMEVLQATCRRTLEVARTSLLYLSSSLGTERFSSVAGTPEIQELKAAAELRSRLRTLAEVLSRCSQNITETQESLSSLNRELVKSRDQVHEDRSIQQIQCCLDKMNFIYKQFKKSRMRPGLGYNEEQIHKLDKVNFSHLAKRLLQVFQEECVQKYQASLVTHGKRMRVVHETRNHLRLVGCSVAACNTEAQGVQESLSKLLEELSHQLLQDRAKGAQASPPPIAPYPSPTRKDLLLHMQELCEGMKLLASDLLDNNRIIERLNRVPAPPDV
Nature of the experiment: Kinobeads competition binding: IKBKE. Particulars: target IKBKE.

For the next experiment, the target named is T3, CDK5 (Homo sapiens, UniProt Q00535).
T3 construct: endogenous in cells
The experiment can be described thus: Kinobeads competition binding: CDK5. Conditions: target CDK5.

In a further experiment the test system is MAPK11. The experiment can be described thus: Kinobeads competition binding: MAPK11. Details: species or system human. Particulars: target MAPK11.
Another experiment relates to PGK1. The experiment can be described thus: Kinobeads competition binding: PGK1. Conditions: target PGK1. Details: species or system human.
The next experiment has as its system NQO2. The experiment can be described thus: Kinobeads competition binding: NQO2. Details: species or system human. Particulars: target NQO2.
A further experiment has as its target T4, AXL (Homo sapiens, UniProt P30530).
T4 construct: endogenous in cells
T4 sequence (P30530 26-894): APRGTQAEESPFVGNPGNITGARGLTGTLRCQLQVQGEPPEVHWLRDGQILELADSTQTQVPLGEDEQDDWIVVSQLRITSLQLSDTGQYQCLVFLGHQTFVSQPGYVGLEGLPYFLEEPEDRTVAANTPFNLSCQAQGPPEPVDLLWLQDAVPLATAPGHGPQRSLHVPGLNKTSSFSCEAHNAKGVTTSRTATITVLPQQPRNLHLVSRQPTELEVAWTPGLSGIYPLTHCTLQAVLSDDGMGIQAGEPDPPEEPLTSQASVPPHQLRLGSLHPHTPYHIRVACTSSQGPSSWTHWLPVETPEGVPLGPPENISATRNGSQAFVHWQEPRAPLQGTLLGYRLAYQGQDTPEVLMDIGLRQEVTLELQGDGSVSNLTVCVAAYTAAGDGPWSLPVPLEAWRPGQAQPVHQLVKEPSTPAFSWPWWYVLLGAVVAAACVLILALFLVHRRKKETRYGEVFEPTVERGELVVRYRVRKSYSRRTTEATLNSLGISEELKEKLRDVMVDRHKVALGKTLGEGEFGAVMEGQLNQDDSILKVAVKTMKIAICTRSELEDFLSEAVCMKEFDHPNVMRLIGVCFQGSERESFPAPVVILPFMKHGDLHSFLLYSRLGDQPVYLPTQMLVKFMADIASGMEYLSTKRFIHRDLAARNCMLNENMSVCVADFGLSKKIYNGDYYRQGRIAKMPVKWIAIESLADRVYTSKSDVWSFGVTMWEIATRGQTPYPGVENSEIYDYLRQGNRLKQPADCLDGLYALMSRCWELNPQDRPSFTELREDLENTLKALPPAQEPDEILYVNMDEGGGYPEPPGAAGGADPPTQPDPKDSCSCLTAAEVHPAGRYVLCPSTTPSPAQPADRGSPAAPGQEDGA
Nature of the experiment: Kinobeads competition binding: AXL. Conditions: target AXL. The source says:
Supplement 41589_2023_1459_MOESM4_ESM.xlsx, sheet "CATDS matrix" | column: AXL

The subject of the next experiment is MST1R. Nature of the experiment: Kinobeads competition binding: MST1R.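 Note: selectivity score: engagement of this protein divided by summed engagement of all targets.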 Details: species or system human. Particulars: target MST1R.
The test system of a further experiment is NLK. Nature of the experiment: Kinobeads competition binding: NLK.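 Note: selectivity score: engagement of this protein divided by summed engagement of all targets.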 Set-up: species or system human. Conditions: target NLK.
The test system of another experiment is EIF2AK1. Nature of the experiment: Kinobeads competition binding: EIF2AK1.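 Note: share of total target engagement due to this protein at one drug concentration.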 Set-up: species or system human. Conditions: target EIF2AK1.
A further experiment relates to CSNK1G1. The experiment can be described thus: Kinobeads competition binding: CSNK1G1.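 Note: share of total target engagement due to this protein at one drug concentration.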 Set-up: species or system human. Particulars: target CSNK1G1.
The next experiment deals with T5, CSNK1G3 (Homo sapiens, UniProt Q9Y6M4).
T5 construct: endogenous in cells
The experiment can be described thus: Kinobeads competition binding: CSNK1G3.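 Note: share of total target engagement due to this protein at one drug concentration.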 Particulars: target CSNK1G3. The source says: Supplement 41589_2023_1459_MOESM4_ESM.xlsx, sheet "CATDS matrix" | column: CSNK1G3

A further experiment has as its system ERCC2. The experiment can be described thus: Kinobeads competition binding: ERCC2. Details: species or system human. Particulars: target ERCC2.
A further experiment relates to PI4KA. Nature of the experiment: Kinobeads competition binding: PI4KA. Set-up: species or system human. Particulars: target PI4KA.
The subject of a further experiment is CDC42BPA. The experiment can be described thus: Kinobeads competition binding: CDC42BPA.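 Note: selectivity score: engagement of this protein divided by summed engagement of all targets.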 Set-up: species or system human. Particulars: target CDC42BPA.
For the next experiment, the system named is CLK2. The experiment can be described thus: Kinobeads competition binding: CLK2. Set-up: species or system human. Particulars: target CLK2.
The next experiment relates to CDK1. Nature of the experiment: Kinobeads competition binding: CDK1. Details: species or system human. Particulars: target CDK1.

T5 sequence (Q9Y6M4 whole entry): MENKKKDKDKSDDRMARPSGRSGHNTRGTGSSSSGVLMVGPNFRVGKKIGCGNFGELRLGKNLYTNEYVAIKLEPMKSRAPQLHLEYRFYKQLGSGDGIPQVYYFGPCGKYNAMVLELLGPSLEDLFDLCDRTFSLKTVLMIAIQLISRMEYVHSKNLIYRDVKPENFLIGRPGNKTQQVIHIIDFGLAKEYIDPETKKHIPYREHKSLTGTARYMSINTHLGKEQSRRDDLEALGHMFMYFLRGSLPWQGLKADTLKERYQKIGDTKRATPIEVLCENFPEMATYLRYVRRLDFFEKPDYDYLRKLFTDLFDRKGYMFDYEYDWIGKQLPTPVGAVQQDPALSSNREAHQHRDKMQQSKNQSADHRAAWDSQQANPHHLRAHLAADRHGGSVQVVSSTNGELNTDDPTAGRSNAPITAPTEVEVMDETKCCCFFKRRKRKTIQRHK
T1 sequence (O96013 whole entry): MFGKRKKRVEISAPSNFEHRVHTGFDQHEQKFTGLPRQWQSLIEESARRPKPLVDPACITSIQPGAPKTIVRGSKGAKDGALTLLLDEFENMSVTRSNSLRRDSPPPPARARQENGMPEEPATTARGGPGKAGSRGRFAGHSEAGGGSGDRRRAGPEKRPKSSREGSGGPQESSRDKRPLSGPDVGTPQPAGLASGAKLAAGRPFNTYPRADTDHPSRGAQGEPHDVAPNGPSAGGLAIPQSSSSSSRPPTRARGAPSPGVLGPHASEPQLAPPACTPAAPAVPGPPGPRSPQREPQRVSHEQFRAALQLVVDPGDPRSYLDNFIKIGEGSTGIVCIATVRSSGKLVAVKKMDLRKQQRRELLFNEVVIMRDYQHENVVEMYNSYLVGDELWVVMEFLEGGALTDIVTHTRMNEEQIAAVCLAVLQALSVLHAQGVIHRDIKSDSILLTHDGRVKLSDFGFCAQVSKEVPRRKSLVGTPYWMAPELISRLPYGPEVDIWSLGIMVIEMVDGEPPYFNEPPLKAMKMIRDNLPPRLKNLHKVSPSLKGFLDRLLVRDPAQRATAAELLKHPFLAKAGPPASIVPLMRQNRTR
T3 sequence (Q00535 whole entry): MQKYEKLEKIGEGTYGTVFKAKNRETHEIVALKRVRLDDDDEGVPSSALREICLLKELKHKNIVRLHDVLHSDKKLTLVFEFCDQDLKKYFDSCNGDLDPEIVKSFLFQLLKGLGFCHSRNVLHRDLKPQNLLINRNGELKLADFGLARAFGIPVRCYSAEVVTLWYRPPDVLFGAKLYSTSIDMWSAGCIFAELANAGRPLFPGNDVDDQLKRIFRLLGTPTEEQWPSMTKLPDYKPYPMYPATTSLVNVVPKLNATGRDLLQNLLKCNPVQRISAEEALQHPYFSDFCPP

For the compound `CCN1CCN(Cc2ccc(Nc3ncc(F)c(-c4cc(F)c5nc(C)n(C(C)C)c5c4)n3)nc2)CC1` [Abemaciclib], the CATDS was 0 on PAK4; 0 in the experiment on LCK; 0.02651 in the experiment on CDK16; 0 in the experiment with AGK; 0 in the experiment with GALK1; 0 at IKBKE. Besides, the CATDS on CDK5, with MAPK11, in the experiment on PGK1, with NQO2, on AXL and with MST1R was 0 throughout. In addition, the CATDS in the experiment on NLK, in the experiment on EIF2AK1, with CSNK1G1, at CSNK1G3, with ERCC2 and with PI4KA was 0 in each case. The CATDS in the experiment on CDC42BPA and in the experiment with CLK2 was 0 throughout.

On to `N#CC1(c2ccc(NC(=O)c3cccnc3NCc3ccncc3)cc2)CCCC1` [Apatinib], for which the CATDS at PAK4, with LCK, in the experiment on CDK16, with AGK, in the experiment with GALK1 and on IKBKE was 0 each time. For the same compound, the CATDS on CDK5, in the experiment on MAPK11, in the experiment with PGK1, with NQO2, at AXL and in the experiment on MST1R was 0 in each case. The CATDS in the experiment on NLK, with EIF2AK1, with CSNK1G1, on CSNK1G3, in the experiment with ERCC2 and with CDK1 was 0 in each case. The CATDS in the experiment with PI4KA, in the experiment with CDC42BPA and in the experiment with CLK2 was 0 in each case.

As to `CN(C)C/C=C/C(=O)Nc1cc2c(Nc3ccc(F)c(Cl)c3)ncnc2cc1O[C@H]1CCOC1` [Afatinib], the CATDS at PAK4, in the experiment with AGK, with GALK1, in the experiment on PGK1, in the experiment with NQO2 and on AXL was 0 each time. Also, the CATDS at CSNK1G3, in the experiment on ERCC2 and with PI4KA was 0 in each case.

Regarding `Nc1ncnc2[nH]c(-c3ccccc3)nc12` [AH5015_KCGS], the CATDS on PAK4, in the experiment on LCK, with CDK16, in the experiment on AGK, in the experiment with GALK1 and at IKBKE was 0 in each case. Also, the CATDS at CDK5, in the experiment on MAPK11, with PGK1, in the experiment on NQO2, at AXL and in the experiment on MST1R was 0 each time. In addition, the CATDS came to 0 in the experiment on NLK; 0 in the experiment on EIF2AK1; 0 in the experiment on CSNK1G1; 0 at CSNK1G3; 0.1122 in the experiment on ERCC2; 0 with CDK1. Besides, the CATDS with PI4KA, in the experiment with CDC42BPA and in the experiment on CLK2 was 0 throughout.

As for `CCc1cc2c(cc1N1CCC(N3CCOCC3)CC1)C(C)(C)c1[nH]c3cc(C#N)ccc3c1C2=O` [Alectinib], the CATDS on PAK4, in the experiment on LCK, in the experiment with CDK16, in the experiment with AGK, in the experiment with GALK1 and on IKBKE was 0 throughout. Moreover, the CATDS on CDK5, in the experiment on MAPK11, with PGK1, in the experiment with NQO2, on AXL and in the experiment on MST1R was 0 in each case. The CATDS in the experiment with NLK, with EIF2AK1, in the experiment with CSNK1G1, at CSNK1G3, in the experiment on ERCC2 and with CDK1 was 0 in each case. In addition, the CATDS with PI4KA, in the experiment with CDC42BPA and in the experiment on CLK2 was 0 each time.
